Experimental data reported in paper PMC4150255 (Journal of medicinal chemistry, 2012).

System: LNCaP C-81 cells
Assay: cell proliferation assay
Format: cell-based, Human
Details: regular culture medium, 3 days treatment

Question: For `O=C(NN=C1C=CC(=NOS(=O)(=O)c2ccccc2)C=C1)c1cc2ccccc2cc1O` [Compound A9], which inhibition of proliferation is on record?
Answer: up to 70%

Question: How did the inhibition of proliferation turn out when `O=C(c1ccc(O)c(NC(=O)c2cccc3ccccc23)c1)c1ccc(O)c(NC(=O)c2cccc3ccccc23)c1` [Compound A36] was run?
Answer: about 32%
